From PubChem BioAssay AID1919007 (Molecular Pharmacology Branch, DTP, NCI, 2023)
“And” between values parts separate entries of the source, which are not always exact repeats. Equal values may be shown once.

Tested on: A498 complex spheroids with HUVEC/MSC, growth
Assay: Anticancer human tumor A498 cell line growth inhibition [AhR];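 note: seven day exposure starting three days after spheroid seeding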;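 for viability, T/C: luminescence signal used as a surrogate for viable cells; luminescence viability scaled so 100% equals DMSO vehicle wells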
Settings: for viability, T/C: stronger effect = lower value; active = viability on the fitted dose curve at most 10% of control; inactive = the rest
Procedure, shortened: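 Spheroids combined tumor cells with HUVEC endothelial cells and human MSCs as stroma. AhR antagonists were paired with standard or investigational drugs, each dosed in half-log steps down from near clinical Cmax, or from 10 microM where Cmax was unknown.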

[1] = curve of first compound, second compound 0.1 µM
[2] = curve of first compound, second compound 0.316 µM
[3] = curve of first compound, second compound 1 µM
[4] = curve of first compound, second compound 3.16 µM
[5] = curve of first compound, second compound 10 µM
[6] = second compound 0.1 µM, first compound 0.00949 µM
[7] = second compound 0.1 µM, first compound 0.03 µM
[8] = second compound 0.1 µM, first compound 0.0949 µM
[9] = second compound 0.1 µM, first compound 0.3 µM
[10] = second compound 0.316 µM, first compound 0.00949 µM
[11] = second compound 0.316 µM, first compound 0.03 µM
[12] = second compound 0.316 µM, first compound 0.0949 µM
[13] = second compound 0.316 µM, first compound 0.3 µM
[14] = second compound 1 µM, first compound 0.00949 µM
[15] = second compound 1 µM, first compound 0.03 µM
[16] = second compound 1 µM, first compound 0.0949 µM
[17] = second compound 1 µM, first compound 0.3 µM
[18] = second compound 3.16 µM, first compound 0.00949 µM
[19] = second compound 3.16 µM, first compound 0.03 µM
[20] = second compound 3.16 µM, first compound 0.0949 µM
[21] = second compound 3.16 µM, first compound 0.3 µM
[22] = second compound 10 µM, first compound 0.00949 µM
[23] = second compound 10 µM, first compound 0.03 µM
[24] = second compound 10 µM, first compound 0.0949 µM
[25] = second compound 10 µM, first compound 0.3 µM

O=C(C=Cn1cnc(-c2cc(C(F)(F)F)cc(C(F)(F)F)c2)n1)NNc1cnccn1 + Cc1cncc(-c2nc(NCCc3c[nH]c4ccccc34)c3ncn(C(C)C)c3n2)c1
0.0782 µM: IC50 [3]
0.105 µM: IC50 [2]
0.0815 µM: IC50 [1]
< 0.00949 µM: IC50 [5]
0.0724 µM: IC50 [4]
active: viability, T/C [22] 3.95% | viability, T/C [23] 5.26% | viability, T/C [24] 7.65% | viability, T/C [25] 6.47% | viability, T/C (second compound 10 µM, first compound 0.949 µM) 8.27% | viability, T/C (second compound 10 µM, first compound 3 µM) 11.1%
inactive: viability, T/C [6] 86.3% | viability, T/C [7] 73.7% | viability, T/C [8] 46.5% | viability, T/C [9] 30.3% | viability, T/C (second compound 0.1 µM, first compound 0.949 µM) 25.3% | viability, T/C (second compound 0.1 µM, first compound 3 µM) 26.6% | viability, T/C [10] 87.2% | viability, T/C [11] 81.1% | viability, T/C [12] 51.5% | viability, T/C [13] 30.9% | viability, T/C (second compound 0.316 µM, first compound 0.949 µM) 30.8% | viability, T/C (second compound 0.316 µM, first compound 3 µM) 22.2% | viability, T/C [14] 84.8% | viability, T/C [15] 73.2% | viability, T/C [16] 45.6% | viability, T/C [17] 27.9% | viability, T/C (second compound 1 µM, first compound 0.949 µM) 25% | viability, T/C (second compound 1 µM, first compound 3 µM) 24.6% | viability, T/C [18] 69.3% | viability, T/C [19] 67.6% | viability, T/C [20] 43.9% | viability, T/C [21] 30.1% | viability, T/C (second compound 3.16 µM, first compound 0.949 µM) 24.2% | viability, T/C (second compound 3.16 µM, first compound 3 µM) 23.2%

CC(C)CC(NC(=O)C(Cc1ccccc1)NC(=O)c1cnccn1)B(O)O (stereo unspecified) + Cc1cncc(-c2nc(NCCc3c[nH]c4ccccc34)c3ncn(C(C)C)c3n2)c1
0.00334 µM: IC50 [4]
< 0.000949 µM: IC50 [5]
0.00475 µM: IC50 [1]
inactive: viability, T/C (second compound 0.1 µM, first compound 0.000949 µM) 91% | viability, T/C (second compound 0.1 µM, first compound 0.003 µM) 79.8% | viability, T/C (second compound 0.316 µM, first compound 0.000949 µM) 95.5% | viability, T/C (second compound 0.316 µM, first compound 0.003 µM) 88.7% | viability, T/C (second compound 1 µM, first compound 0.000949 µM) 88.2% | viability, T/C (second compound 1 µM, first compound 0.003 µM) 79.1% | viability, T/C (second compound 3.16 µM, first compound 0.000949 µM) 62.5% | viability, T/C (second compound 3.16 µM, first compound 0.003 µM) 54.9%
0.00469 µM: IC50 [3]
0.00508 µM: IC50 [2]
active: viability, T/C [6] 5.02% | viability, T/C [7] 1.12% | viability, T/C [8] 0.37% | viability, T/C [9] 0.34% | viability, T/C [10] 4.18% | viability, T/C [11] 1.1% | viability, T/C [12] 0.36% | viability, T/C [13] 0.3% | viability, T/C [14] 4.22% | viability, T/C [15] 0.83% | viability, T/C [16] 0.33% | viability, T/C [17] 0.36% | viability, T/C [18] 3.44% | viability, T/C [19] 0.63% | viability, T/C [20] 0.22% | viability, T/C [21] 0.3% | viability, T/C (second compound 10 µM, first compound 0.000949 µM) 5.04% | viability, T/C (second compound 10 µM, first compound 0.003 µM) 3.31% | viability, T/C [22] 0.4% | viability, T/C [23] 0.14% | viability, T/C [24] 0.15% | viability, T/C [25] 0.22%

COc1ccc([C@@H](O)c2cc(-c3ncnc4cc(N5CCOCC5)ccc34)c(F)cc2Cl)nn1
inactive: viability, T/C (compound 0.0316 µM) 96.5% and 95.1% and 98.9% | viability, T/C (compound 0.1 µM) 92% and 80.4% and 92.3% | viability, T/C (compound 0.316 µM) 64.8% and 60.7% and 62% | viability, T/C (compound 1 µM) 40.2% and 59.5% and 30.9% | viability, T/C (compound 3.16 µM) 23.1% and 19.5% and 17.6%
12.3% and 7.92% and 9.02%: viability, T/C (compound 10 µM)
0.654 µM and 0.887 µM and 0.508 µM: IC50 (curve of compound)

CCc1c2c(nc3ccc(O)cc13)-c1cc3c(c(=O)n1C2)COC(=O)[C@]3(O)CC
0.0511 µM and 0.109 µM and 0.0219 µM: IC50 (curve of compound)
inactive: viability, T/C (compound 0.000949 µM) 87% and 101% and 90.7% | viability, T/C (compound 0.003 µM) 85.5% and 93.3% and 84.1% | viability, T/C (compound 0.00949 µM) 65.7% and 84% and 61.2% | viability, T/C (compound 0.03 µM) 58.1% and 70.1% and 45.5% | viability, T/C (compound 0.0949 µM) 42.9% and 49.1% and 37.1% | viability, T/C (compound 0.3 µM) 33.4% and 41.5% and 29.9%

CC1COCCN1c1cc(-c2ccnn2C)c2ccnc(-c3ccn[nH]3)c2n1 (stereo unspecified)
0.167 µM and 0.121 µM and 0.0909 µM: IC50 (curve of compound)
inactive: viability, T/C (compound 0.00316 µM) 108% and 93.8% and 98.7% | viability, T/C (compound 0.01 µM) 111% and 87.4% and 102% | viability, T/C (compound 0.0316 µM) 95.7% and 68.2% and 82.7% | viability, T/C (compound 0.1 µM) 64.3% and 61.4% and 47.2% | viability, T/C (compound 0.316 µM) 32.3% and 25.7% and 21% | viability, T/C (compound 1 µM) 22.3% and 15.8% and 13.9%
